Results from PubChem BioAssay (NCI).
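How tested: cells in 96-well plates exposed to compound for 48 hours at five concentrations. Here, GI50 denotes the concentration required for 50% inhibition of growth. The concentration for full growth arrest is given as TGI.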

What was measured:
Test in all cases: NCI-60 cell line screen, 48 h
HCT-116 colon = system: HCT-116 colon
786-0 renal = system: 786-0 renal
UACC-62 melanoma = system: UACC-62 melanoma
HS 578T breast = system: HS 578T breast
T-47D breast = system: T-47D breast
SK-MEL-2 melanoma = system: SK-MEL-2 melanoma
OVCAR-8 ovarian = system: OVCAR-8 ovarian
NCI-H226 lung = system: NCI-H226 lung
NCI/ADR-RES ovarian = system: NCI/ADR-RES ovarian
OVCAR-5 ovarian = system: OVCAR-5 ovarian
A498 renal = system: A498 renal
SK-MEL-5 melanoma = system: SK-MEL-5 melanoma
CCRF-CEM leukemia = system: CCRF-CEM leukemia
M14 melanoma = system: M14 melanoma
EKVX NSCLC = system: EKVX NSCLC
SF-539 CNS = system: SF-539 CNS
MDA-N = system: MDA-N
TK-10 renal = system: TK-10 renal
SK-OV-3 ovarian = system: SK-OV-3 ovarian
SNB-19 CNS = system: SNB-19 CNS
NCI-H522 lung = system: NCI-H522 lung
HT29 colon = system: HT29 colon
HCC-2998 colon = system: HCC-2998 colon
SF-268 CNS = system: SF-268 CNS
SF-295 CNS = system: SF-295 CNS
COLO 205 colon = system: COLO 205 colon
LOX IMVI melanoma = system: LOX IMVI melanoma
OVCAR-3 ovarian = system: OVCAR-3 ovarian
MALME-3M melanoma = system: MALME-3M melanoma
PC-3 prostate = system: PC-3 prostate
U251 CNS = system: U251 CNS
OVCAR-4 ovarian = system: OVCAR-4 ovarian
HCT-15 colon = system: HCT-15 colon
HL-60(TB) leukemia = system: HL-60(TB) leukemia
NCI-H23 lung = system: NCI-H23 lung
DU-145 prostate = system: DU-145 prostate
SN12C renal = system: SN12C renal
SNB-75 CNS = system: SNB-75 CNS
IGROV1 ovarian = system: IGROV1 ovarian
MDA-MB-435 = system: MDA-MB-435
UO-31 renal = system: UO-31 renal
SK-MEL-28 melanoma = system: SK-MEL-28 melanoma
MCF7 breast = system: MCF7 breast
HOP-92 NSCLC = system: HOP-92 NSCLC
BT-549 breast = system: BT-549 breast
MOLT-4 leukemia = system: MOLT-4 leukemia
K-562 leukemia = system: K-562 leukemia
MDA-MB-231 breast = system: MDA-MB-231 breast
KM12 colon = system: KM12 colon
UACC-257 melanoma = system: UACC-257 melanoma
RPMI-8226 leukemia = system: RPMI-8226 leukemia
NCI-H460 lung = system: NCI-H460 lung
ACHN renal = system: ACHN renal
HOP-62 NSCLC = system: HOP-62 NSCLC
SW-620 colon = system: SW-620 colon
CAKI-1 renal = system: CAKI-1 renal
A549 NSCLC = system: A549 NSCLC
RXF 393 renal = system: RXF 393 renal

Compound O=c1cc(-c2ccc3ccccc3c2)[nH]c2ncc(Cl)cc12 has a GI50 (HCT-116 colon) of 3.98 µM, a TGI (HCT-116 colon) of over 100 µM and a TGI (786-0 renal) of 16.8 µM. It also gave a TGI (UACC-62 melanoma) of over 100 µM, a TGI (HS 578T breast) of 70.8 µM and a TGI (T-47D breast) of over 100 µM. It also gave a TGI (SK-MEL-2 melanoma) of 45.1 µM, a TGI (OVCAR-8 ovarian) of 22.9 µM and a TGI (NCI-H226 lung) of over 100 µM. It also gave a TGI (NCI/ADR-RES ovarian) of over 100 µM, a TGI (OVCAR-5 ovarian) of over 100 µM and a TGI (A498 renal) of 43.1 µM. For the same compound, the GI50 (SK-MEL-5 melanoma) was 2.98 µM, the TGI (SK-MEL-5 melanoma) was over 100 µM and the TGI (CCRF-CEM leukemia) was 56.8 µM. The TGI (M14 melanoma) was over 100 µM, the TGI (EKVX NSCLC) was over 100 µM and the TGI (SF-539 CNS) was 56.5 µM. The GI50 (MDA-N) was 1.55 µM, the TGI (MDA-N) was 5.45 µM and the TGI (TK-10 renal) was 45.6 µM. For the same compound, the TGI (SK-OV-3 ovarian) was 34.4 µM, the TGI (SNB-19 CNS) was 51.2 µM and the TGI (NCI-H522 lung) was 36.8 µM. The TGI (HT29 colon) was over 100 µM, the TGI (HCC-2998 colon) was over 100 µM and the TGI (SF-268 CNS) was 34.4 µM. It also gave a GI50 (SF-295 CNS) of 5.44 µM, a TGI (SF-295 CNS) of 29 µM and a TGI (COLO 205 colon) of 21.8 µM. The TGI (LOX IMVI melanoma) was over 100 µM, the GI50 (OVCAR-3 ovarian) was 2.65 µM and the TGI (OVCAR-3 ovarian) was 7.81 µM. The TGI (MALME-3M melanoma) was 44.1 µM, the GI50 (PC-3 prostate) was 3.1 µM and the TGI (PC-3 prostate) was 29.1 µM. For the same compound, the GI50 (U251 CNS) was 4.74 µM, the TGI (U251 CNS) was 46.1 µM and the TGI (OVCAR-4 ovarian) was over 100 µM. For the same compound, the TGI (HCT-15 colon) was over 100 µM, the GI50 (HL-60(TB) leukemia) was 1.78 µM and the TGI (HL-60(TB) leukemia) was 3.96 µM. For the same compound, the TGI (NCI-H23 lung) was 57 µM, the TGI (DU-145 prostate) was over 100 µM and the TGI (SN12C renal) was over 100 µM. It also gave a TGI (SNB-75 CNS) of 9.96 µM, a TGI (IGROV1 ovarian) of over 100 µM and a GI50 (MDA-MB-435) of 0.846 µM. For the same compound, the TGI (MDA-MB-435) was 2.76 µM, the TGI (UO-31 renal) was over 100 µM and the TGI (SK-MEL-28 melanoma) was over 100 µM. It also gave a TGI (MCF7 breast) of over 100 µM, a TGI (HOP-92 NSCLC) of 38.1 µM and a TGI (BT-549 breast) of over 100 µM. It also gave a TGI (MOLT-4 leukemia) of over 100 µM, a TGI (K-562 leukemia) of over 100 µM and a TGI (MDA-MB-231 breast) of 56.2 µM. For the same compound, the TGI (KM12 colon) was over 100 µM, the TGI (UACC-257 melanoma) was over 100 µM and the TGI (RPMI-8226 leukemia) was 24.5 µM. For the same compound, the GI50 (NCI-H460 lung) was 4.12 µM, the TGI (NCI-H460 lung) was over 100 µM and the TGI (ACHN renal) was over 100 µM. For the same compound, the TGI (HOP-62 NSCLC) was 29.6 µM, the TGI (SW-620 colon) was over 100 µM and the GI50 (CAKI-1 renal) was 7.58 µM. It also gave a TGI (CAKI-1 renal) of over 100 µM and a TGI (A549 NSCLC) of over 100 µM.

Work on OC1CCCN(C2(c3cccs3)CCCCC2)C1 (centres undefined) yielded a TGI (HCT-116 colon) of over 100 µM, a TGI (786-0 renal) of over 100 µM and a TGI (UACC-62 melanoma) of over 100 µM. The TGI (HS 578T breast) was over 100 µM, the TGI (T-47D breast) was over 100 µM and the TGI (SK-MEL-2 melanoma) was over 100 µM. It also gave a TGI (OVCAR-8 ovarian) of over 100 µM, a TGI (NCI/ADR-RES ovarian) of over 100 µM and a TGI (OVCAR-5 ovarian) of over 100 µM. The TGI (A498 renal) was over 100 µM, the TGI (SK-MEL-5 melanoma) was over 100 µM and the TGI (EKVX NSCLC) was over 100 µM. It also gave a TGI (MDA-N) of over 100 µM, a TGI (TK-10 renal) of over 100 µM and a TGI (SK-OV-3 ovarian) of over 100 µM. It also gave a TGI (NCI-H522 lung) of over 100 µM, a TGI (HT29 colon) of over 100 µM and a TGI (HCC-2998 colon) of over 100 µM. For the same compound, the TGI (SF-268 CNS) was over 100 µM, the TGI (SF-295 CNS) was over 100 µM and the TGI (COLO 205 colon) was over 100 µM. The TGI (LOX IMVI melanoma) was over 100 µM, the TGI (OVCAR-3 ovarian) was over 100 µM and the TGI (MALME-3M melanoma) was over 100 µM. For the same compound, the TGI (PC-3 prostate) was over 100 µM, the TGI (U251 CNS) was over 100 µM and the TGI (OVCAR-4 ovarian) was over 100 µM. For the same compound, the TGI (HCT-15 colon) was over 100 µM, the TGI (HL-60(TB) leukemia) was over 100 µM and the TGI (NCI-H23 lung) was over 100 µM. The TGI (DU-145 prostate) was over 100 µM, the TGI (SN12C renal) was over 100 µM and the TGI (SNB-75 CNS) was over 100 µM. The TGI (RXF 393 renal) was over 100 µM, the TGI (IGROV1 ovarian) was over 100 µM and the TGI (MDA-MB-435) was over 100 µM. It also gave a TGI (SK-MEL-28 melanoma) of over 100 µM, a TGI (MCF7 breast) of over 100 µM and a TGI (HOP-92 NSCLC) of over 100 µM. For the same compound, the TGI (BT-549 breast) was over 100 µM, the TGI (MOLT-4 leukemia) was over 100 µM and the TGI (K-562 leukemia) was over 100 µM. For the same compound, the TGI (MDA-MB-231 breast) was over 100 µM, the TGI (KM12 colon) was over 100 µM and the TGI (UACC-257 melanoma) was over 100 µM. For the same compound, the TGI (RPMI-8226 leukemia) was over 100 µM, the TGI (NCI-H460 lung) was over 100 µM and the TGI (ACHN renal) was over 100 µM. For the same compound, the TGI (HOP-62 NSCLC) was over 100 µM, the TGI (SW-620 colon) was over 100 µM and the TGI (CAKI-1 renal) was over 100 µM.
